According to US20200390100A1, “SUBSTITUTED N-HETEROCYCLYL- AND N-HETEROARYL-TETRAHYDROPYRIMIDINONES AND THE SALTS THEREOF, AND THE USE OF SAME AS HERBICIDAL ACTIVE SUBSTANCES” (Bayer Aktiengesellschaft, priority 2017, published 2020):

How the values were obtained:
[1] = target: T1, photosystem II (PS II) (Spinacia oleracea, UniProt P69560); test: Measurement of PS II activity in thylakoid membranes (DCPIP reduction); type: biochemical, spinach; details: PS II activity in spinach thylakoid membranes, Table E1; read-out: Effect
T1 construct: the chloroplasts were osmotically ruptured and the thylakoid membranes were then obtained by centrifugation; from tissue; host or cells: fresh spinach leaves; thylakoid membrane preparation from isolated chloroplasts
Protocol: Cooled fresh spinach leaves were comminuted and homogenized in 50 mM phosphate buffer, pH 6.8. 10 mM KCl, 0.34 M sucrose (sucrose buffer) (blender, 1 g of plant material/ml). The homogenate was subsequently filtered through 4 layers of Miracloth and the chloroplasts were isolated by centrifugation, i.e. 10 min of centrifugation at 4400×g (4° C.). The sediment was suspended in 25 ml of sucrose buffer and re-centrifuged for 10 min at 4400×g (4° C.). The sediment was then suspended in 40 ml of 50 mM phosphate buffer, pH 6.8, 10 mM KCl, without sucrose. In this step, the chloroplasts were osmotically ruptured and the thylakoid membranes were then obtained by centrifugation (10 min, 4400×g, 4° C.). The membrane sediment was finally suspended in about 20 ml of 50 mM phosphate buffer, pH 6.8, 10 mM KCl. Following protein determination and activity determination, the membrane suspension was divided into aliquots and frozen in liquid nitrogen. The aliquots were stored at −80° C. Under these conditions, the photosystem II preparation was storage stable for at least three months. The activity determination of photosystem II (PS II) was then carried out using the following test principle: The electron transfer from PS II to an artificial electron acceptor, 2,6-dichlorophenolindophenol (DCPIP), was measured with exposure to light. The concentration of the blue oxidized form of DCPIP was determined spectrophotometrically at wavelength λ=595 nm. […] The activity determination is carried out in microtiter plates (96 cavities) in a reaction volume of 200 μl. Here, 155 μl of dilute membrane suspension were initially charged in 50 mM of phosphate buffer, pH 6.8, 10 mM KCl. Depending on the activity of the PS II preparation, the dilution was adjusted such that the measurement of the decrease in absorption (λ=595 nm) was linear for at least 10 min. In each case 5 μl solutions of the test compounds of a concentration of 100 μM in DMSO were added to the enzyme suspension; controls contained 5 μl of DMSO; the final concentration of DMSO in the reaction batch was thus 2.5% (v/v); this concentration had no adverse effect on the enzymatic activity. On each microtiter plate, a known PS II inhibitor, for example metribuzin, was used as standard, which allowed the quality of the PS II test to be assessed. The reaction was started by addition of 40 μl DCPIP solution (600 μM in distilled water); the final concentration of DCPIP was 120 μM. Measurement of absorption is carried out over a period of 10 min at 22° C. and with exposure to light. Using metribuzin as comparative substance, the results for the efficacy of the compounds of the general formula (I) at 100 μM are stated in the table below using the following classification: ++++(inhibition≥90%), +++(90%>inhibition≥70%), ++(70%>inhibition≥50%), +(50%>inhibition≥30%).

[2] = test system: Hordeum murinum; test: Pre-emergence herbicidal action, greenhouse, 320 g/ha; type: in vivo; details: application rate 320 g/ha, Table B14
Method in brief: (§1)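 Visual % damage versus untreated pots was read about 3 weeks after treatment, where 0% means growth as in controls and 100% means dead plants. Compounds were applied as WP or EC in water plus 0.5% additive onto the covering soil over freshly sown seeds.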

[3] = test system: Echinochloa crus-galli; test: as above; type: in vivo; details: application rate 320 g/ha, scored visually after about 3 weeks vs untreated controls
Method in brief: as §1

[4] = test system: Avena fatua; test: as above; type: in vivo; details: application rate 320 g/ha, scored visually after about 3 weeks vs untreated controls
Method in brief: as §1

[5] = test system: Stellaria media; test: as above; type: in vivo; details: application rate 320 g/ha, scored visually after about 3 weeks vs untreated controls
Method in brief: as §1

[6] = test system: Matricaria inodora; test: as above; type: in vivo; details: application rate 320 g/ha, scored visually after about 3 weeks vs untreated controls
Method in brief: as §1

[7] = test system: Viola tricolor; test: as above; type: in vivo; details: application rate 320 g/ha, Table B8
Method in brief: as §1

[8] = test system: Pharbitis purpurea; test: as above; type: in vivo; details: application rate 320 g/ha, Table B12
Method in brief: as §1

[9] = test system: Setaria viridis; test: as above; type: in vivo; details: application rate 320 g/ha, Table B11
Method in brief: as §1

[10] = test system: Alopecurus myosuroides; test: as above; type: in vivo; details: application rate 320 g/ha, scored visually after about 3 weeks vs untreated controls
Method in brief: as §1

[11] = test system: Abutilon theophrasti; test: as above; type: in vivo; details: application rate 320 g/ha, scored visually after about 3 weeks vs untreated controls
Method in brief: as §1

[12] = test system: Polygonum convolvulus; test: as above; type: in vivo; details: application rate 320 g/ha, scored visually after about 3 weeks vs untreated controls
Method in brief: as §1

[13] = test system: Amaranthus retroflexus; test: as above; type: in vivo; details: application rate 320 g/ha, scored visually after about 3 weeks vs untreated controls
Method in brief: as §1

[14] = test system: Stellaria media; test: Herbicidal pre-emergence action (Part 2), 1280 g/ha; type: in vivo; details: application rate 1280 g/ha, scored visually after about 3 weeks, Table D8
Method in brief: (§2)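 In this greenhouse test, covered seeds received an aqueous WP or EC spray on the soil surface. Damage, 0–100% relative to controls, was judged by eye after about 3 weeks.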

[15] = test system: Matricaria inodora; test: as above; type: in vivo; details: application rate 1280 g/ha, scored visually after about 3 weeks, Table D7
Method in brief: as §2

[16] = test system: Lolium rigidum; test: as above; type: in vivo; details: application rate 1280 g/ha, scored visually after about 3 weeks, Table D2
Method in brief: as §2

[17] = test system: Poa annua; test: as above; type: in vivo; details: application rate 1280 g/ha, scored visually after about 3 weeks, Table D3
Method in brief: as §2

[18] = test system: Amaranthus retroflexus; test: as above; type: in vivo; details: application rate 1280 g/ha, scored visually after about 3 weeks, Table D6
Method in brief: as §2

[19] = test system: Stellaria media; test: Herbicidal post-emergence action (Part 2), 1280 g/ha; type: in vivo; details: application rate 1280 g/ha, rated visually after about 3 weeks, Table C7
Method in brief: (§3)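 Scoring: visual, % activity against untreated controls after ~3 weeks, with death counted as 100%. Application was a post-emergence foliar spray to one-leaf-stage weeds in greenhouse pots.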

[20] = test system: Amaranthus retroflexus; test: as above; type: in vivo; details: application rate 1280 g/ha, rated visually after about 3 weeks, Table C5
Method in brief: as §3

[21] = test system: Pharbitis purpurea; test: Post-emergence herbicidal action, greenhouse, 320 g/ha; type: in vivo; details: application rate 320 g/ha, rated visually after about 3 weeks vs untreated controls
Protocol: (§4) Seeds of monocotyledonous and dicotyledonous weeds and crop plants were placed in sandy loam in plastic or wood-fiber pots, covered with soil and cultivated in a greenhouse under controlled growth conditions. 2 to 3 weeks after sowing, the test plants were treated at the one-leaf stage. The compounds of the invention, formulated in the form of wettable powders (WP) or as emulsion concentrates (EC), were then sprayed onto the green parts of the plants as aqueous suspension or emulsion with addition of 0.5% additive at a water application rate of […] (converted). After the test plants had been kept in the greenhouse under optimum growth conditions for about 3 weeks, the activity of the preparations was rated visually in comparison to untreated controls. For example, 100% activity=the plants have died, 0% activity=like control plants. Tables A1 to A14 below show the effects of selected compounds of the general formula (I) according to Tables 1.1 to 1.150 on various harmful plants and at an application rate corresponding to 320 g/ha, which were obtained by the experimental procedure mentioned above.

[22] = test system: Abutilon theophrasti; test: as above; type: in vivo; details: application rate 320 g/ha, rated visually after about 3 weeks vs untreated controls
Protocol: as §4

[23] = test system: Amaranthus retroflexus; test: as above; type: in vivo; details: application rate 320 g/ha, rated visually after about 3 weeks vs untreated controls
Protocol: as §4

[24] = test system: Echinochloa crus-galli; test: Herbicidal pre-emergence action (Part 2), 1280 g/ha; type: in vivo; details: application rate 1280 g/ha, scored visually after about 3 weeks, Table D1
Method in brief: as §2

[25] = test system: Setaria viridis; test: as above; type: in vivo; details: application rate 1280 g/ha, scored visually after about 3 weeks, Table D4
Method in brief: as §2

[26] = test system: Abutilon theophrasti; test: as above; type: in vivo; details: application rate 1280 g/ha, scored visually after about 3 weeks, Table D5
Method in brief: as §2

[27] = test system: Matricaria inodora; test: Herbicidal post-emergence action (Part 2), 1280 g/ha; type: in vivo; details: application rate 1280 g/ha, rated visually after about 3 weeks, Table C6
Method in brief: as §3

[28] = test system: Abutilon theophrasti; test: as above; type: in vivo; details: application rate 1280 g/ha, rated visually after about 3 weeks, Table C4
Method in brief: as §3

| SMILES | Stellaria media [14] | Matricaria inodora [15] | Lolium rigidum [16] | Poa Annua [17] | Amaranthus retroflexus [18] | Stellaria media [19] | Amaranthus retroflexus [20] | Echinochloa crus-galli [24] | Setaria viridis [25] | Abutilon theophrasti [26] | other results |
| --- | --- | --- | --- | --- | --- | --- | --- | --- | --- | --- | --- |
| CN1CCC(O)N(c2cc(C(C)(C)C)on2)C1=O (stereo not drawn) [I.1-162, 3-(5-tert-Butyl-1,2-oxazol-3-yl)-4-hydroxy-1-methyltetrahydropyrimidin-2(1H)-one] |  |  |  |  |  |  |  |  |  |  | inhibition at 100 µM [1]: > 90%; Hordeum murinum (efficacy in %) [2]: 90%; Echinochloa crus-galli (efficacy in %) [3]: 80%; Avena fatua (efficacy in %) [4]: 90%; Stellaria media (efficacy in %) [5]: 90%; Matricaria inodora (efficacy in %) [6]: 100%; Viola tricolor (efficacy in %) [7]: 90%; Pharbitis purpurea (efficacy in %) [8]: 80%; Setaria viridis (efficacy in %) [9]: 90%; Alopecurus myosuroides (efficacy in %) [10]: 90%; Abutilon theophrasti (efficacy in %) [11]: 100%; Polygonum convolvulus (efficacy in %) [12]: 90%; Amaranthus retroflexus (efficacy in %) [13]: 100% |
| CC(=O)OC1CCN(C)C(=O)N1c1cc(C(F)(F)F)ccn1 (stereo not drawn) [I.2-449] | 100% | 100% | 90% | 100% | 100% | 100% | 100% |  |  |  |  |
| CC(C)(C)c1cc(N2C(=O)N3CCCC3CC2O)no1 (stereo not drawn) [I.121-162] | 100% | 100% | 90% | 100% | 100% |  |  | 100% | 100% | 100% | Pharbitis purpurea (efficacy in %) [21]: 80%; Abutilon theophrasti (efficacy in %) [22]: 80%; Amaranthus retroflexus (efficacy in %) [23]: 100% |
| CC(C)C(=O)OC1CCN(C)C(=O)N1c1cc(C(C)(C)C)no1 (stereo not drawn) [I.5-290, 3-(3-tert-Butyl-1,2-oxazol-5-yl)-1-methyl-2-oxohexahydropyrimidin-4-yl 2-methylpropanoate] | 100% | 90% |  | 90% | 100% | 100% | 100% | 90% | 90% | 100% | Matricaria inodora [27]: 100%; Abutilon theophrasti [28]: 100% |
